The test system of series [1] is colon (HCT-116), cervical (HeLa), and renal (RFX393) tumor cell lines. Kind of series: MTT antiproliferative assay, all three tumor cell lines. The following applies: HCT-116, HeLa, RFX393; summary of Table 3; read-out: GI50 values against all three tumor cell lines. Format: cell-based. Here is the method:
(§1) Briefly, the tumor cells (1×10^4 cells/well) were seeded in 96-well microtiter plates and incubated for 24 h at 37° C. Following incubation, the media was replaced with fresh media containing the above compounds at concentrations ranging from 1 μM to 1 pM diluted in DMSO and incubated for an additional 48 h. Drugs were run in duplicate or triplicate and control cells received fresh media with DMSO concentration equivalent to the treatment groups. […] After aspirating the culture medium, 200 μL of DMSO was added to dissolve the precipitate and the resulting solution was measured for absorbance at 570 nm with a reference wavelength of 690 nm using a microplate reader (Infinite M200 Pro TECAN).
Background: Tetrazolium assays rely on reduction of a dye to a coloured formazan, in cell work by metabolically active cells.

The next series concerns RFX393 (renal). Kind of series: MTT antiproliferative assay, RFX393. Format: cell-based. The settings on record: MTT, 48 h; read-out: Antiproliferative Activity GI50, Renal RFX393. The method, then:
as §1

For series [2] the following is noted: 10 mg/mL cpd in 20% DMSO/saline.
The next series addresses T1, Recombinant human HDAC1 (Homo sapiens, UniProt Q13547).
T1 construct: purchased BPS Bioscience Inc
The series is described as follows: HDAC-Glo I/II assay, HDAC1. Type of series: biochemical. The following applies: for IC50: Class I HDAC, compounds reduced by TCEP prior to assay, read-out: IC50 of HDAC1; for Class I selectivity Ratio HDAC 1/HDAC8: ratio of IC50 values. Here is the method: The purified compounds of all fragments and natural product derivatives were evaluated for inhibitory effects on three different classes of HDAC proteins (class I, IIa, and IIb). […] All activity was determined by using a fluorescence-based in vitro assay. Class I HDAC proteins that were evaluated were HDAC1, HDAC2, HDAC3, HDAC8, HDAC4, and HDAC6. Class IIa HDAC protein were HDAC4 and the Class IIb HDAC protein were HDAC6.
HDAC-Glo™ I/II Assay and Screening System (Promega) was used to determine the HDAC inhibitory activity. Recombinant human HDAC1, HDAC2, HDAC3, HDAC4, HDAC6 and HDAC8 were purchased from BPS Bioscience Inc. The inhibitory activities of the test compounds against recombinant HDAC were performed according to reagent suppliers' protocols.
All test compounds were firstly dissolved in DMSO to make 10 mM stock solution. A certain amount of stock solution was diluted to 1 mM by DMSO and then reduced by tris(2-carboxyethyl)phosphine hydrochloride (TCEP) in a molar ration of 1:1.5 for 20 min at ambient temperature prior to being assayed. After reduction, a series of fivefold dilutions of each reduced compound were prepared with HDAC-Glo buffer and 25 μL of each dilution was added into a well on a 96-well plate. HDAC enzymes were diluted to the desired concentrations with HDAC-Glo buffer and 25 μL of each diluted enzyme was dispensed into a well to mix with 25 μL of testing compound at room temperature for 30-60 seconds. After the reaction mixture had been incubated at room temperature for 1 hour, 50 μL of HDAC-Glo reagent was added to each reaction well and mixed up for 30-60 seconds. Finally, the plate was incubated at room temperature for an additional 30 minutes before the luminescence was measured on a Synergy HT plate reader (Bio-Tek). The luminescence intensity data were analyzed using GraphPad Prism 5 (GraphPad Software). In the absence of any test compound, the luminescence intensity (I100) in each data set was defined as 100% activity. In the absence of both of HDAC enzymes and test compound, the luminescence intensity (I0) in each data set was defined as 0% activity. The relative activity (%) in the presence of each compound was calculated according to the following equation: % activity=(I−I0)/(I100−I0), where I=the luminescence intensity if a compound is present in the reaction. Experiments were performed in triplicate and the calculated mean values were used for plotting.

For series [3], the system named is MDA-MB-231 (breast cancer). Kind of series: MTT antiproliferative assay, MDA-MB-231. Type of series: cell-based. The following applies: Homo sapiens, MDA-MB-231; MTT, 48 h; read-out: Antiproliferative Activity GI50, Breast MDA-MB-231. The method, then: as §1
The subject of the next series is COLO-205 (colon cancer). Kind of series: MTT antiproliferative assay, COLO-205. Type of series: cell-based. The settings on record: Homo sapiens, COLO 205; MTT, 48 h; read-out: Antiproliferative Activity GI50, Colon COLO-205. The method, then: as §1
In the next series the test system is DU-145 (prostate cancer). Kind of series: MTT antiproliferative assay, DU-145. Type of series: cell-based. The following applies: Homo sapiens, DU-145; MTT, 48 h; read-out: Antiproliferative Activity GI50, Prostate DU-145. Here is the method:
as §1

Another series concerns SKOV-3 (ovarian). The series is described as follows: MTT antiproliferative assay, SKOV-3. Type of series: cell-based. The settings on record: Homo sapiens, SK-OV-3; MTT, 48 h; read-out: Antiproliferative Activity GI50, Ovarian SKOV-3. Here is the method: as §1
In another series the test system is BALB/c mice. Kind of series: in vivo. The following applies: BALB/c, mouse, in vivo, ip, 2 weeks.

SMILES strings stand for the structures.

The text below walks through data of patent publication US11149062B2, “HDAC inhibitors and methods of treatment using the same” (UWM Research Foundation, Inc., priority 2015, dated 2021).

T1 sequence (Q13547 whole entry): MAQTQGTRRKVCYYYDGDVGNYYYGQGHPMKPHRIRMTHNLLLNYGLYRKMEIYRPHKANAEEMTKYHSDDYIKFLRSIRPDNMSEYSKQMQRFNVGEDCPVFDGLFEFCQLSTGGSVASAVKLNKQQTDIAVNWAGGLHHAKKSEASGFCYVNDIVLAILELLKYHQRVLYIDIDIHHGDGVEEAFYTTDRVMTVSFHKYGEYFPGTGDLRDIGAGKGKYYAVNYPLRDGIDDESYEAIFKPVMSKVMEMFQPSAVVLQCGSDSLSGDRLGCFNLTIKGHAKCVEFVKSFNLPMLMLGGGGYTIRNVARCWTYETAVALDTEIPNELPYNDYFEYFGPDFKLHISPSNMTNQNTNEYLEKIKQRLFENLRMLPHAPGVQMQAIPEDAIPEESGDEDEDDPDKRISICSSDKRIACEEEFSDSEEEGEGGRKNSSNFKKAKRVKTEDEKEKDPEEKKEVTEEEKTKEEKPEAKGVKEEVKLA

As for `CSCC[C@H]1NC(=O)CC(O)/C=C/CCSSC[C@H](C(=O)O)NC1=O` (stereo partly drawn) [TDF3, (4S,7R,12E)-11-hydroxy-7-[2-(methylsulfanyl)ethyl]-6,9-dioxo-1,2-dithia-5,8-diazacyclopentadec-12-ene-4-carboxylic acid], the 50% growth inhibitory concentration (GI50) in series [1] was determined as 600 nM. Besides, the GI50 in the series on RFX393 (renal) came out at 200 nM. Further, the Solubility entry in series [2] was “Soluble”. Also, at Recombinant human HDAC1, the 50% inhibitory concentration (IC50) is 22.9 nM and the “Class I selectivity Ratio HDAC 1/HDAC8” value amounted to 0.00036.
In the case of `COC(=O)[C@H]1CSSCC/C=C/C(O)CC(=O)N[C@H](CCSC)C(=O)N1` (stereo partly drawn) [TDF3m, Methyl (4S,7R,12E)-11-hydroxy-7-[2-(methylsulfanyl)ethyl]-6,9-dioxo-1,2-dithia-5,8-diazacyclopentadec-12-ene-4-carboxylate], the GI50 in series [3] came to 600 nM; in series [1], 400 nM; in the series with COLO-205 (colon cancer), 900 nM; in the series on DU-145 (prostate cancer) it was 300 nM; with SKOV-3 (ovarian), 500 nM; with RFX393 (renal) it was 300 nM. Moreover, the Solubility result in [2] was “Partially soluble”. The “MTD (toxicity in healthy BALB/c mice)” value in the series on BALB/c mice is given as more than 200 mg/kg. For the same molecule, the IC50 on Recombinant human HDAC1 came out at 12.5 nM. The “Class I selectivity Ratio HDAC 1/HDAC8” value on Recombinant human HDAC1 turned out to be 0.00028.

What is called GI50 is the concentration giving 50% growth inhibition. As a reminder, the IC50 is the concentration that gives 50% inhibition.
